{"source": "patent US12064408B2", "about": "“Compounds for the treatment of obesity and methods of use thereof” (The Children's Medical Center Corporation, priority 2012, dated 2024)", "molecules": {"B1": {"name": "leptin: peptide hormone regulating food intake and body weight; injected ip dissolved in saline (protein, UniProt P41160 22-167, looked up)", "Leptin": "VPIQKVQDDTKTLIKTIVTRINDISHTQSVSAKQRVTGLDFIPGLHPILSLSKMDQTLAVYQQVLTSLPSQNVLQIANDLENLRDLLHLLAFSKSCSLPQTSGLQKPESLDGVLEASLYSTEVVALSRLQGSLQDILQQLDVSPEC"}}, "key": {"[1]": {"conditions": "weight loss products; Sources: FDA 2010, Natural Medicines Comprehensive Database 2010; cited from earlier work"}, "mice": {"test_system": "mice", "test": "Locomotor activity (Columbus Instruments Comprehensive Lab Animal Monitoring System)", "format": "in vivo", "protocol": "Locomotor activity was also normal in celastrol-treated mice. This is consistent with celastrol not having a toxic effect causing anorexia and weight loss, since the latter would be associated with decreased locomotor activity.\nFIGS. 16A and 16B are graphs showing x (FIG. 16A) and y (FIG. 16B) direction ambulatory motion for control and celastrol in dark and light cycles. Toxicity was evaluated using Columbus Instruments Comprehensive Lab Animal Monitoring System we have measure the locomotor activity of the animals."}, "[2]": {"test_system": "alanine transaminase (ALT)", "test": "Serum ALT by ELISA", "format": "in vivo", "conditions": "three weeks 100 μg/kg i.p., HFD-fed obese mice", "protocol": "(§1) To investigate the effect of celastrol administration on liver function, serum levels of alanine transaminase (ALT) and aspartate transaminase (AST) were measured in mice following three weeks of celastrol treatment (100 μg/kg, i.p.). ALT and AST were measured using an enzyme-linked immunosorbent assay (ELISA) kit (from Bio Scientific)."}, "[3]": {"test_system": "aspartate transaminase (AST)", "test": "Serum AST by ELISA", "format": "in vivo", "conditions": "three weeks 100 μg/kg i.p., HFD-fed obese mice", "protocol": "as §1"}, "HFD-fed obese mice [4]": {"test_system": "HFD-fed obese mice", "test": "Liver and kidney histology (H&E)", "format": "in vivo", "conditions": "three weeks 100 μg/kg i.p."}, "HFD-fed obese mice [5]": {"test_system": "HFD-fed obese mice", "test": "Leptin injection upon acute celastrol treatment, HFD-fed obese mice", "format": "in vivo", "protocol": "(§2) It was therefore hypothesized that celastrol exerts anti-obesity effects through increasing leptin sensitivity in the brains of the HFD-fed obese mice. To test this hypothesis, leptin was administered to celastrol- or vehicle-treated HFD-fed obese animals. To avoid any possible leptin sensitizing effect of weight loss or decreased food intake created by celastrol administration, leptin injections were carried out upon acute celastrol treatment as described below.\n(§3) Lean and HFD-fed obese mice were divided into four groups: 1) DMSO+saline, 2) DMSO+leptin, 3) celastrol+saline, and 4) celastrol+leptin (n=3 per group). Mice were injected (ip) with 100 μg/kg celastrol or vehicle (DMSO) one hour before dark cycle (day zero). 24 hours later, mice were injected for a second time with celastrol or DMSO (day 1), and all animals were then taken to 24 hour-fasting. On day two, at 21 hours of fasting, mice received a final injection of DMSO or celastrol. 30 minutes prior to dark cycle, at 23.5 hour of fasting, mice received a single ip injection of leptin (10 mg/kg, dissolved in saline), or saline. […] 1, 3, 6, 15, and 24-hour food intake and 24-hour body weight changes were recorded (FIG. 7A). […] This is clearly evident when food intake of the celastrol-treated mice is calculated in percent values (FIG. 7B). […]"}, "lean mice": {"test_system": "lean mice", "test": "Leptin injection upon acute celastrol treatment, lean mice", "format": "in vivo", "conditions": "6-hour time point, leptin 10 mg/kg ip, DMSO or celastrol 100 μg/kg ip pre-treatment", "protocol": "as §2, §3"}}, "data": [{"molecule": "[Cr]", "note": "[Chromium]", "values": [{"measurement": "Safety", "setting": "[1]", "value": "Likely safe"}]}, {"molecule": "CC1=C(O)C(=O)C=C2C1=CC=C1[C@@]2(C)CC[C@@]2(C)[C@@H]3C[C@](C)(C(=O)O)CC[C@]3(C)CC[C@]12C", "note": "[celastrol]", "values": [{"measurement": "locomotor activity", "setting": "mice; celastrol-treated mice", "value": "normal"}, {"measurement": "x and y direction ambulatory motion counts", "setting": "mice; dark and light cycles, versus control", "value": "not significantly different"}, {"measurement": "visible sign of sickness and toxicity", "setting": "mice; drug treated mice", "value": "do not show any visible sign"}, {"measurement": "ALT levels", "setting": "[2]", "value": "decreases"}, {"measurement": "AST levels", "setting": "[3]", "value": "decreases"}, {"measurement": "kidney morphology", "setting": "HFD-fed obese mice [4]", "value": "no detectable change"}]}, {"molecule": "Conjugated linoleic acid [Conjugated linoleic acid (CLA)]", "values": [{"measurement": "Safety", "setting": "[1]", "value": "Possibly safe"}]}, {"molecule": "B1", "values": [{"measurement": "decrease in food intake upon leptin injection", "setting": "HFD-fed obese mice [5]; 6-hour time point, leptin 10 mg/kg ip, DMSO or celastrol 100 μg/kg ip pre-treatment", "value": "approximately 40%"}, {"measurement": "24-hour body weight change", "setting": "HFD-fed obese mice [5]; 24 hour ad libitum feeding period after 24-hour fasting", "value": "resistant"}, {"measurement": "decrease in food intake upon leptin injection", "setting": "lean mice", "value": "approximately 40%"}]}]}
